Source: PubChem BioAssay (NCI)
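Interpolation was linear, between the two tested concentrations surrounding the appropriate level; five concentrations were tested over 48 hours in 96-well plates. TGI is the concentration that stops growth completely.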

Legend:
Assay in all cases: NCI tumour cell line growth inhibition, 48 h
HL-60(TB) leukemia = tested on: HL-60(TB) leukemia
M19-MEL melanoma = tested on: M19-MEL melanoma
UACC-257 melanoma = tested on: UACC-257 melanoma
CAKI-1 renal = tested on: CAKI-1 renal
A549 NSCLC = tested on: A549 NSCLC
SF-539 CNS = tested on: SF-539 CNS
UO-31 renal = tested on: UO-31 renal
OVCAR-4 ovarian = tested on: OVCAR-4 ovarian
KM20L2 colon = tested on: KM20L2 colon
CCRF-CEM leukemia = tested on: CCRF-CEM leukemia
OVCAR-3 ovarian = tested on: OVCAR-3 ovarian
786-0 renal = tested on: 786-0 renal
LXFL 529 NSCLC = tested on: LXFL 529 NSCLC
UACC-62 melanoma = tested on: UACC-62 melanoma
RXF 393 renal = tested on: RXF 393 renal
NCI-H460 lung = tested on: NCI-H460 lung
SNB-78 CNS = tested on: SNB-78 CNS
OVCAR-8 ovarian = tested on: OVCAR-8 ovarian
DMS 273 small cell lung = tested on: DMS 273 small cell lung
K-562 leukemia = tested on: K-562 leukemia
HOP-62 NSCLC = tested on: HOP-62 NSCLC
SF-268 CNS = tested on: SF-268 CNS
M14 melanoma = tested on: M14 melanoma
MOLT-4 leukemia = tested on: MOLT-4 leukemia
SN12C renal = tested on: SN12C renal
SNB-75 CNS = tested on: SNB-75 CNS
RXF-631 renal = tested on: RXF-631 renal
SK-MEL-5 melanoma = tested on: SK-MEL-5 melanoma
DLD-1 colon = tested on: DLD-1 colon
SNB-19 CNS = tested on: SNB-19 CNS
SF-295 CNS = tested on: SF-295 CNS
NCI-H522 lung = tested on: NCI-H522 lung
NCI-H23 lung = tested on: NCI-H23 lung
NCI-H226 lung = tested on: NCI-H226 lung
HCT-15 colon = tested on: HCT-15 colon
KM12 colon = tested on: KM12 colon
HCT-116 colon = tested on: HCT-116 colon
HOP-92 NSCLC = tested on: HOP-92 NSCLC
IGROV1 ovarian = tested on: IGROV1 ovarian
SR leukemia = tested on: SR leukemia
SW-620 colon = tested on: SW-620 colon
MALME-3M melanoma = tested on: MALME-3M melanoma
DMS 114 small cell lung = tested on: DMS 114 small cell lung
HT29 colon = tested on: HT29 colon
A498 renal = tested on: A498 renal
EKVX NSCLC = tested on: EKVX NSCLC
HOP-18 NSCLC = tested on: HOP-18 NSCLC
TK-10 renal = tested on: TK-10 renal
LOX IMVI melanoma = tested on: LOX IMVI melanoma
ACHN renal = tested on: ACHN renal
RPMI-8226 leukemia = tested on: RPMI-8226 leukemia
SK-OV-3 ovarian = tested on: SK-OV-3 ovarian
HCC-2998 colon = tested on: HCC-2998 colon
OVCAR-5 ovarian = tested on: OVCAR-5 ovarian
U251 CNS = tested on: U251 CNS
COLO 205 colon = tested on: COLO 205 colon

Measured: TGI

Cc1oc2c(C)c3oc(=O)cc(C)c3cc2c1CN1C(=O)C2OCCOCCOCCOCCOCCO[C@H]2C1=O (stereo partly specified)
74.2 µM: RXF-631 renal
> 100 µM: all other assays above
